± gives the expanded uncertainty stated by the source.
Assay: xn = mol fraction of the nth substance listed
Settings: 101 kPa, Liquid; for viscosity: Capillary tube (Ostwald / Ubbelohde) method; for speed of sound: Frequency=3 MHz, Linear variable-path acoustic interferometer

C1COCCO1 [1,4-dioxane] + c1ccccc1
Settings | speed of sound [m/s] | viscosity [mPa·s]
293.15 K, x1 = 0.0713 | 1329.8 ± 1.7 | 0.6955 ± 0.015
293.15 K, x1 = 0.1403 | 1334.5 ± 1.7 | 0.7421 ± 0.015
293.15 K, x1 = 0.2123 | 1339.4 ± 1.7 | 0.7905 ± 0.017
293.15 K, x1 = 0.2809 | 1343.6 ± 1.7 | 0.8364 ± 0.017
293.15 K, x1 = 0.3528 | 1347.9 ± 1.7 | 0.8842 ± 0.018
293.15 K, x1 = 0.4195 | 1351.5 ± 1.7 | 0.9283 ± 0.019
293.15 K, x1 = 0.5037 | 1355.8 ± 1.7 | 0.9838 ± 0.021
293.15 K, x1 = 0.58 | 1359.2 ± 1.7 | 1.034 ± 0.022
293.15 K, x1 = 0.6504 | 1362.2 ± 1.7 | 1.08 ± 0.023
293.15 K, x1 = 0.7197 | 1364.2 ± 1.7 | 1.125 ± 0.023
293.15 K, x1 = 0.7822 | 1365.4 ± 1.7 | 1.165 ± 0.024
293.15 K, x1 = 0.8561 | 1366.9 ± 1.7 | 1.213 ± 0.025
293.15 K, x1 = 0.9287 | 1367.4 ± 1.7 | 1.26 ± 0.026
293.15 K, x1 = 1 | 1367.2 ± 1.7 | 1.306 ± 0.027
298.15 K, x1 = 0.0713 | 1304 ± 1.6 | 0.6485 ± 0.014
298.15 K, x1 = 0.1403 | 1308.1 ± 1.6 | 0.6905 ± 0.014
298.15 K, x1 = 0.2123 | 1312.5 ± 1.6 | 0.7339 ± 0.015
298.15 K, x1 = 0.2809 | 1316.5 ± 1.6 | 0.775 ± 0.016
298.15 K, x1 = 0.3528 | 1320.5 ± 1.7 | 0.8179 ± 0.017
298.15 K, x1 = 0.4195 | 1324 ± 1.7 | 0.8574 ± 0.018
298.15 K, x1 = 0.5037 | 1328.2 ± 1.7 | 0.907 ± 0.019
298.15 K, x1 = 0.58 | 1332 ± 1.7 | 0.9517 ± 0.02
298.15 K, x1 = 0.6504 | 1335.1 ± 1.7 | 0.9928 ± 0.021
298.15 K, x1 = 0.7197 | 1337.5 ± 1.7 | 1.033 ± 0.022
298.15 K, x1 = 0.7822 | 1339.8 ± 1.7 | 1.069 ± 0.022
298.15 K, x1 = 0.8561 | 1342 ± 1.7 | 1.112 ± 0.023
298.15 K, x1 = 0.9287 | 1343.7 ± 1.7 | 1.154 ± 0.024
298.15 K, x1 = 1 | 1344.7 ± 1.7 | 1.195 ± 0.025
303.15 K, x1 = 0.0713 | 1279.4 ± 1.6 | 0.6068 ± 0.013
303.15 K, x1 = 0.1403 | 1283 ± 1.6 | 0.6446 ± 0.013
303.15 K, x1 = 0.2123 | 1287 ± 1.6 | 0.6836 ± 0.014
303.15 K, x1 = 0.2809 | 1290.6 ± 1.6 | 0.7206 ± 0.015
303.15 K, x1 = 0.3528 | 1294.2 ± 1.6 | 0.7591 ± 0.016
303.15 K, x1 = 0.4195 | 1297.6 ± 1.6 | 0.7946 ± 0.017
303.15 K, x1 = 0.5037 | 1301.8 ± 1.6 | 0.839 ± 0.017
303.15 K, x1 = 0.58 | 1305.7 ± 1.6 | 0.879 ± 0.018
303.15 K, x1 = 0.6504 | 1309.2 ± 1.6 | 0.9157 ± 0.019
303.15 K, x1 = 0.7197 | 1312.3 ± 1.7 | 0.9517 ± 0.02
303.15 K, x1 = 0.7822 | 1315.1 ± 1.7 | 0.9841 ± 0.021
303.15 K, x1 = 0.8561 | 1318.2 ± 1.7 | 1.022 ± 0.021
303.15 K, x1 = 0.9287 | 1320.8 ± 1.7 | 1.059 ± 0.022
303.15 K, x1 = 1 | 1323.1 ± 1.7 | 1.096 ± 0.023
308.15 K, x1 = 0.0713 | 1255.4 ± 1.6 | 0.5686 ± 0.012
308.15 K, x1 = 0.1403 | 1258.7 ± 1.6 | 0.6033 ± 0.013
308.15 K, x1 = 0.2123 | 1262 ± 1.6 | 0.6392 ± 0.013
308.15 K, x1 = 0.2809 | 1265.1 ± 1.6 | 0.673 ± 0.014
308.15 K, x1 = 0.3528 | 1268.7 ± 1.6 | 0.7082 ± 0.015
308.15 K, x1 = 0.4195 | 1272 ± 1.6 | 0.7406 ± 0.015
308.15 K, x1 = 0.5037 | 1276.1 ± 1.6 | 0.7812 ± 0.016
308.15 K, x1 = 0.58 | 1280.2 ± 1.6 | 0.8176 ± 0.017
308.15 K, x1 = 0.6504 | 1284 ± 1.6 | 0.851 ± 0.018
308.15 K, x1 = 0.7197 | 1287.4 ± 1.6 | 0.8837 ± 0.018
308.15 K, x1 = 0.7822 | 1290.8 ± 1.6 | 0.9131 ± 0.019
308.15 K, x1 = 0.8561 | 1294.5 ± 1.6 | 0.9477 ± 0.02
308.15 K, x1 = 0.9287 | 1297.9 ± 1.6 | 0.9815 ± 0.02
308.15 K, x1 = 1 | 1301.2 ± 1.7 | 1.014 ± 0.021
313.15 K, x1 = 0.0713 | 1231.7 ± 1.6 | 0.532 ± 0.011
313.15 K, x1 = 0.1403 | 1234.3 ± 1.6 | 0.5644 ± 0.012
313.15 K, x1 = 0.2123 | 1237.2 ± 1.6 | 0.5979 ± 0.013
313.15 K, x1 = 0.2809 | 1240.5 ± 1.6 | 0.6294 ± 0.013
313.15 K, x1 = 0.3528 | 1244 ± 1.6 | 0.6621 ± 0.014
313.15 K, x1 = 0.4195 | 1247.1 ± 1.6 | 0.6921 ± 0.015
313.15 K, x1 = 0.5037 | 1251.3 ± 1.6 | 0.7297 ± 0.015
313.15 K, x1 = 0.58 | 1255.5 ± 1.6 | 0.7634 ± 0.016
313.15 K, x1 = 0.6504 | 1259.4 ± 1.6 | 0.7943 ± 0.017
313.15 K, x1 = 0.7197 | 1263.5 ± 1.6 | 0.8245 ± 0.017
313.15 K, x1 = 0.7822 | 1266.8 ± 1.6 | 0.8516 ± 0.018
313.15 K, x1 = 0.8561 | 1271.2 ± 1.6 | 0.8835 ± 0.018
313.15 K, x1 = 0.9287 | 1275.3 ± 1.6 | 0.9146 ± 0.019
313.15 K, x1 = 1 | 1279.7 ± 1.6 | 0.945 ± 0.02
318.15 K, x1 = 0.0713 | 1209.6 ± 1.6 | 0.4993 ± 0.01
318.15 K, x1 = 0.1403 | 1211.9 ± 1.6 | 0.5297 ± 0.011
318.15 K, x1 = 0.2123 | 1214.5 ± 1.6 | 0.5611 ± 0.012
318.15 K, x1 = 0.2809 | 1217.2 ± 1.6 | 0.5906 ± 0.012
318.15 K, x1 = 0.3528 | 1220.5 ± 1.6 | 0.6211 ± 0.013
318.15 K, x1 = 0.4195 | 1223.6 ± 1.6 | 0.6492 ± 0.014
318.15 K, x1 = 0.5037 | 1227.9 ± 1.6 | 0.6842 ± 0.014
318.15 K, x1 = 0.58 | 1232.1 ± 1.6 | 0.7156 ± 0.015
318.15 K, x1 = 0.6504 | 1236 ± 1.6 | 0.7443 ± 0.015
318.15 K, x1 = 0.7197 | 1240.1 ± 1.6 | 0.7724 ± 0.016
318.15 K, x1 = 0.7822 | 1243.9 ± 1.6 | 0.7975 ± 0.017
318.15 K, x1 = 0.8561 | 1248.8 ± 1.6 | 0.8271 ± 0.017
318.15 K, x1 = 0.9287 | 1253.6 ± 1.6 | 0.8559 ± 0.018
318.15 K, x1 = 1 | 1258.6 ± 1.6 | 0.884 ± 0.018

Reference: the NIST ThermoML archive (doi:10.1016/j.jct.2017.01.016)
